Data taken from ChEMBL document CHEMBL1781982, “Evaluation of antioxidant and antimicrobial activities of Bergenin and its derivatives obtained by chemoenzymatic synthesis” (Eur J Med Chem, 2011).
Activity calls are given as the source filed them. The rule behind the calls is not given here.

Assays:
[1] = test system: Staphylococcus aureus; test: Antibacterial activity against Staphylococcus aureus MTCC 2940 at 30 ug/disc after 24 hrs; type: functional; settings: MTCC 2940, 24 h, read-out: DIZ
[2] = test system: Bacillus subtilis; test: Antibacterial activity against Bacillus subtilis MTCC 441 at 30 ug/disc after 24 hrs; type: functional; settings: MTCC 441, 24 h, read-out: DIZ
[3] = test system: Escherichia coli; test: Antibacterial activity against Escherichia coli MTCC 739 at 30 ug/disc after 24 hrs; type: functional; settings: MTCC 739, 24 h, read-out: DIZ
[4] = test system: Klebsiella pneumoniae; test: Antibacterial activity against Klebsiella pneumoniae MTCC 139 at 30 ug/disc after 24 hrs; type: functional; settings: MTCC 139, 24 h, read-out: DIZ
[5] = test system: Radical scavenging activity; test: Antioxidant activity assessed as DPPH free radical scavenging activity at 200 to 1000 uM after 5 mins; type: functional
[6] = target: Xanthine dehydrogenase/oxidase (Homo sapiens, UniProt P47989); test: Inhibition of xanthine oxidase assessed as reduction of uric acid production from xanthine at 10 to 50 uM preincubated for 15 mins measured after 30 mins by spectrophotometry; settings: 0.5 h
Sequence of Xanthine dehydrogenase/oxidase (P47989 whole entry, the tested form may be a part): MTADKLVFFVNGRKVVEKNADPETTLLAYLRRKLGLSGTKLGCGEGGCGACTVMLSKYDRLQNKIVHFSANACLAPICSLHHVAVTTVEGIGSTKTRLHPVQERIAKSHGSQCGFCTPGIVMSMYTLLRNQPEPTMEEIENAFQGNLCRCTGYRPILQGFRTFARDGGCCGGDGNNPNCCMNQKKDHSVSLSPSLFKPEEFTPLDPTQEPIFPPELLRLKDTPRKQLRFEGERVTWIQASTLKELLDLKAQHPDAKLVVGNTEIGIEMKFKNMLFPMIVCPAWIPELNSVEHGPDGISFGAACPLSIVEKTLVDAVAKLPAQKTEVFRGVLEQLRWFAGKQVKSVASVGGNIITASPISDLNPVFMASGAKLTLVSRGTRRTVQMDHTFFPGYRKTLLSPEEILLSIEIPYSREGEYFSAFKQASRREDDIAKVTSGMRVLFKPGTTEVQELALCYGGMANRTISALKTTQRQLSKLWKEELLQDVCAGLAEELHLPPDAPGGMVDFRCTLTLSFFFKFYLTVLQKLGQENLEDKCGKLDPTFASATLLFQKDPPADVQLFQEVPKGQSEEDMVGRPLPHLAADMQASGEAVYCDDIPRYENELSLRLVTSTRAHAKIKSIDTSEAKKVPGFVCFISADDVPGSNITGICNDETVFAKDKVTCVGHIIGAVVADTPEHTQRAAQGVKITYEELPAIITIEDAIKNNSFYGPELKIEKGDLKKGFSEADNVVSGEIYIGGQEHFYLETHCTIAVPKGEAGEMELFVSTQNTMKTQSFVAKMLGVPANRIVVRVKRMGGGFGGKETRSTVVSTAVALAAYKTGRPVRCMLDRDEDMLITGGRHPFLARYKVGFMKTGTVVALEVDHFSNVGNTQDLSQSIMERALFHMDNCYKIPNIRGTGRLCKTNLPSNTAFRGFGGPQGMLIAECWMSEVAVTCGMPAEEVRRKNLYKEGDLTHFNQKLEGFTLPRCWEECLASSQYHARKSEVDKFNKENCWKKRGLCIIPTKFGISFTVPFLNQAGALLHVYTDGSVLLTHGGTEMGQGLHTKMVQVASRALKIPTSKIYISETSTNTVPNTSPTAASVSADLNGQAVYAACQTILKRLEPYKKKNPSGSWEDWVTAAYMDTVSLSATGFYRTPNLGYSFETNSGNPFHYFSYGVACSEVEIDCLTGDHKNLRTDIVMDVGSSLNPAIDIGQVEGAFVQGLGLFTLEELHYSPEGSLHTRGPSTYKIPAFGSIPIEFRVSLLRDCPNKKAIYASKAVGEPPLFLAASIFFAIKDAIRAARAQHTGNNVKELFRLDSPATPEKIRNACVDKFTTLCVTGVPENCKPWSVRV

[7] = test system: Staphylococcus aureus; test: Antibacterial activity against Staphylococcus aureus MTCC 2940 at 2000 ug/ml after 24 hrs by agar-well diffusion method; type: functional; settings: MTCC 2940, 24 h, read-out: DIZ
[8] = test system: Bacillus subtilis; test: Antibacterial activity against Bacillus subtilis MTCC 441 at 2000 ug/ml after 24 hrs by agar-well diffusion method; type: functional; settings: MTCC 441, 24 h, read-out: DIZ
[9] = test system: Escherichia coli; test: Antibacterial activity against Escherichia coli MTCC 739 at 2000 ug/ml after 24 hrs by agar-well diffusion method; type: functional; settings: MTCC 739, 24 h, read-out: DIZ
[10] = test system: Klebsiella pneumoniae; test: Antibacterial activity against Klebsiella pneumoniae MTCC 139 at 2000 ug/ml after 24 hrs by agar-well diffusion method; type: functional; settings: MTCC 139, 24 h, read-out: DIZ

SMILES	inhibition (INH) [6]	zone of inhibition at 30 µg/disc [1] [mm]	zone of inhibition at 30 µg/disc [2] [mm]	zone of inhibition at 30 µg/disc [3] [mm]	zone of inhibition at 30 µg/disc [4] [mm]	Activity [5]	zone of inhibition at 2000 µg/mL [7] [mm]	zone of inhibition at 2000 µg/mL [8] [mm]	zone of inhibition at 2000 µg/mL [9] [mm]	zone of inhibition at 2000 µg/mL [10] [mm]
NC[C@H]1O[C@H](O[C@H]2[C@H](O)[C@@H](O[C@H]3O[C@H](CO)[C@@H](O)[C@H](N)[C@H]3O)[C@H](N)C[C@@H]2N)[C@H](O)[C@@H](O)[C@@H]1O [KANAMYCIN]	–	25.1	23.2	18	19.5	–	–	–	–	–
COc1c(O)cc2c(c1OC(C)=O)[C@@H]1O[C@H](COC(C)=O)[C@@H](OC(C)=O)[C@H](OC(C)=O)[C@H]1OC2=O	–	–	–	–	–	Active	3.2	4.3	14.1	3.3
O=c1c(O)c(-c2ccc(O)c(O)c2)oc2cc(O)cc(O)c12 [QUERCETIN]	Active	–	–	–	–	–	–	–	–	–
COc1c(OC(C)=O)cc2c(c1OC(C)=O)[C@@H]1O[C@H](COC(C)=O)[C@@H](OC(C)=O)[C@H](OC(C)=O)[C@H]1OC2=O [BERGENIN PENTAACETATE]	–	–	–	–	–	Active	8.3	5.2	16.2	5.1
COc1c(O)cc2c(c1O)[C@@H]1O[C@H](CO)[C@@H](O)[C@H](O)[C@H]1OC2=O [BERGENIN]	Not Active	–	–	–	–	Active	2.1	1.3	3.3	2.5

Further lines, with some results ahead:

inhibition (INH) [6]	SMILES	zone of inhibition at 30 µg/disc [1] [mm]	zone of inhibition at 30 µg/disc [2] [mm]	zone of inhibition at 30 µg/disc [3] [mm]	zone of inhibition at 30 µg/disc [4] [mm]	Activity [5]	zone of inhibition at 2000 µg/mL [7] [mm]	zone of inhibition at 2000 µg/mL [8] [mm]	zone of inhibition at 2000 µg/mL [9] [mm]	zone of inhibition at 2000 µg/mL [10] [mm]
Not Active	CCCCCCCCCC(=O)Oc1cc2c(c(OC(C)=O)c1OC)[C@@H]1O[C@H](COC(C)=O)[C@@H](OC(C)=O)[C@H](OC(C)=O)[C@H]1OC2=O	–	–	–	–	Active	3.2	3.9	6.2	4.2
Not Active	COc1c(OC(=O)c2ccccc2)cc2c(c1OC(C)=O)[C@@H]1O[C@H](COC(C)=O)[C@@H](OC(C)=O)[C@H](OC(C)=O)[C@H]1OC2=O	–	–	–	–	Active	5.5	4.3	9.3	6.3
Not Active	CCCCCC(=O)Oc1cc2c(c(OC(C)=O)c1OC)[C@@H]1O[C@H](COC(C)=O)[C@@H](OC(C)=O)[C@H](OC(C)=O)[C@H]1OC2=O	–	–	–	–	Active	6.4	7.4	21.4	5.4
Not Active	CCCCCCCCCCCCCC(=O)Oc1cc2c(c(OC(C)=O)c1OC)[C@@H]1O[C@H](COC(C)=O)[C@@H](OC(C)=O)[C@H](OC(C)=O)[C@H]1OC2=O	–	–	–	–	Active	2.4	2.2	5.4	3.1
